Values of other authors, collected in patent US6809181B2, “Human beta-defensin-3 (HBD-3), a highly cationic beta-defensin antimicrobial peptide” (University of Iowa Research Foundation, priority 2000, dated 2004).
Converted amounts (≈) assume the structure as drawn. Like-named read-outs stand apart in the source and are kept apart here.

What was measured:
[1] = system: Bordetella bronchiseptica; conditions: n=11, r8, cited from earlier work
Bordetella parapertussis = conditions: n=46; r9; unit assumed; cited from earlier work
Bordetella pertussis = conditions: n=32; r10; unit assumed; cited from earlier work
[2] = system: Branhamella (Moraxella) catarrhalis (non β-lactamase producer); conditions: cited from earlier work
[3] = system: Branhamella (Moraxella) catarrhalis (β-lactamase producer); conditions: cited from earlier work
Campylobacter pylori = conditions: n=56, r43, cited from earlier work
Corynebacterium JK = conditions: n=19; r46; unit assumed; cited from earlier work
Enterococcus faecalis = conditions: cited from earlier work
Enterococcus faecium = conditions: n=14, r51, cited from earlier work
Enterococcus spp. = conditions: n=35, r52, cited from earlier work
Haemophilus ducreyi = conditions: n=122; r53; unit assumed; cited from earlier work
[4] = system: Haemophilus influenzae (non β-lactamase producer); conditions: n=137; r58; cited from earlier work
[5] = system: Haemophilus influenzae (β-lactamase producer); conditions: cited from earlier work
[6] = system: Haemophilus influenzae (penicillin susceptible); conditions: n=22, r64, cited from earlier work
[7] = system: Haemophilus influenzae (penicillin resistant); conditions: n=20, r66, cited from earlier work
[8] = system: Haemophilus parainfluenzae; conditions: n=13, r68, cited from earlier work
[9] = system: Neisseria gonorrhoeae (β-lactamase producer); conditions: cited from earlier work
Neisseria meningitidis = conditions: n=19, r90, cited from earlier work
Nocardia asteroides = conditions: n=78, r91, cited from earlier work
Staphylococcus aureus = conditions: unit assumed, cited from earlier work
[10] = system: Staphylococcus aureus (penicillin susceptible); conditions: cited from earlier work; for MIC50 / MIC90: unit assumed
[11] = system: Staphylococcus aureus (penicillin resistant); conditions: n=35, r98, cited from earlier work
[12] = system: Staphylococcus aureus (methicillin resistant); conditions: cited from earlier work
Staphylococcus hominis = conditions: n=20; r122; unit assumed; cited from earlier work
Streptococcus agalactiae = conditions: cited from earlier work
Streptococcus pneumoniae = conditions: cited from earlier work; for MIC90: unit assumed
Streptococcus spp. = conditions: cited from earlier work; for MIC50 / MIC90: unit assumed
Ureaplasma urealyticum = conditions: unit assumed, cited from earlier work

In the case of `CC[C@H]1OC(=O)[C@H](C)[C@@H](O[C@H]2C[C@@](C)(OC)[C@@H](O)[C@H](C)O2)[C@H](C)[C@@H](O[C@@H]2O[C@H](C)C[C@H](N(C)C)[C@H]2O)[C@](C)(O)C[C@@H](C)C(=O)[C@H](C)[C@@H](O)[C@]1(C)O` [ERYTHROMYCIN, erythromycin], the Range [1] is given as 4-32, the MIC50 ([1]; unit assumed) is given as 8 µg/mL (≈ 10.9 µM) and the MIC90 ([1]; unit assumed) is given as 32 µg/mL (≈ 43.6 µM). The MIC50 (Bordetella parapertussis) was 0.25 µg/mL (≈ 0.341 µM), the MIC50 (Bordetella pertussis) was 0.25 µg/mL (≈ 0.341 µM) and the Range ([2]; n=14, r23) was 0.06-1. The Range ([2]; n=16, r26) was 0.015-1, the Range ([2]; n=40, r17) was 0.06-0.5 and the Range ([3]; n=47, r29) was 0.06-1. For the same molecule, the Range ([3]; n=58, r32) was 0.03-0.25, the Range ([3]; n=160, r35) was 0.06-8 and the Range (Campylobacter pylori) was 0.25-16. For the same molecule, the MIC50 (Campylobacter pylori; unit assumed) was 0.5 µg/mL (≈ 0.681 µM), the MIC90 (Campylobacter pylori; unit assumed) was 1 µg/mL (≈ 1.36 µM) and the MIC50 (Corynebacterium JK) was 2 µg/mL (≈ 2.73 µM). For the same molecule, the Range (Enterococcus faecalis; n=26, r47) was 1-64, the MIC50 (Enterococcus faecalis; n=26, r47, unit assumed) was 1 µg/mL (≈ 1.36 µM) and the MIC90 (Enterococcus faecalis; n=26, r47, unit assumed) was 4 µg/mL (≈ 5.45 µM). The Range (Enterococcus faecalis; n=50, r48) was 0.06-64, the MIC50 (Enterococcus faecalis; n=50, r48, unit assumed) was 4 µg/mL (≈ 5.45 µM) and the MIC50 (Enterococcus faecalis; n=86, r49, unit assumed) was 1 µg/mL (≈ 1.36 µM). The MIC50 (Enterococcus faecalis; n=97, r50, unit assumed) was 2 µg/mL (≈ 2.73 µM), the Range (Enterococcus faecium) was 0.06-64 and the MIC50 (Enterococcus faecium; unit assumed) was 1 µg/mL (≈ 1.36 µM). For the same molecule, the Range (Enterococcus spp.) was 0.06-32, the MIC50 (Enterococcus spp.; unit assumed) was 2 µg/mL (≈ 2.73 µM) and the MIC90 (Enterococcus spp.; unit assumed) was 32 µg/mL (≈ 43.6 µM). For the same molecule, the MIC50 (Haemophilus ducreyi) was 0.004 µg/mL (≈ 0.00545 µM), the MIC90 (Haemophilus ducreyi) was 0.06 µg/mL (≈ 0.0818 µM) and the Range [4] was 0.06-8. The Range ([5]; n=17, r62) was 0.25-4, the Range ([5]; n=46, r60) was 0.06-8 and the Range [6] was 0.25-16. For the same molecule, the MIC50 ([6]; unit assumed) was 8 µg/mL (≈ 10.9 µM), the MIC90 ([6]; unit assumed) was 16 µg/mL (≈ 21.8 µM) and the Range [7] was 8-16. For the same molecule, the MIC50 ([7]; unit assumed) was 8 µg/mL (≈ 10.9 µM), the MIC90 ([7]; unit assumed) was 16 µg/mL (≈ 21.8 µM) and the Range [8] was 0.5-8. The MIC50 ([8]; unit assumed) was 2 µg/mL (≈ 2.73 µM), the MIC90 ([8]; unit assumed) was 4 µg/mL (≈ 5.45 µM) and the Range ([9]; n=12, r86) was 0.03-4. The Range ([9]; n=17, r88) was 1-4, the Range (Neisseria meningitidis) was 0.5-8 and the MIC50 (Neisseria meningitidis; unit assumed) was 1 µg/mL (≈ 1.36 µM). For the same molecule, the MIC90 (Neisseria meningitidis; unit assumed) was 8 µg/mL (≈ 10.9 µM), the Range (Nocardia asteroides) was 0.25-8 and the MIC50 (Nocardia asteroides; unit assumed) was 8 µg/mL (≈ 10.9 µM). For the same molecule, the MIC90 (Nocardia asteroides; unit assumed) was 8 µg/mL (≈ 10.9 µM), the MIC90 (Staphylococcus aureus; n=44, r92) was 0.5 µg/mL (≈ 0.681 µM) and the MIC50 (Staphylococcus aureus; n=100, r93) was 0.5 µg/mL (≈ 0.681 µM). The MIC90 (Staphylococcus aureus; n=100, r93) was 4 µg/mL (≈ 5.45 µM), the MIC50 ([10]; n=20, r94) was 0.5 µg/mL (≈ 0.681 µM) and the MIC90 ([10]; n=20, r94) was 0.5 µg/mL (≈ 0.681 µM). For the same molecule, the Range ([10]; n=35, r96) was 0.06-32, the MIC50 ([10]; n=35, r96) was 0.25 µg/mL (≈ 0.341 µM) and the MIC90 ([10]; n=35, r96) was 0.5 µg/mL (≈ 0.681 µM). For the same molecule, the Range [11] was 0.25-32, the MIC50 ([11]; unit assumed) was 0.25 µg/mL (≈ 0.341 µM) and the MIC90 ([11]; unit assumed) was 32 µg/mL (≈ 43.6 µM). The Range ([12]; n=15, r108) was 64, the MIC50 ([12]; n=15, r108, unit assumed) was 64 µg/mL (≈ 87.2 µM) and the Range ([12]; n=20, r110) was 64. For the same molecule, the MIC50 ([12]; n=20, r110, unit assumed) was 64 µg/mL (≈ 87.2 µM), the Range ([12]; n=30, r112) was 0.06-32 and the MIC50 ([12]; n=30, r112, unit assumed) was 32 µg/mL (≈ 43.6 µM). The MIC90 ([12]; n=30, r112, unit assumed) was 32 µg/mL (≈ 43.6 µM), the MIC50 (Staphylococcus hominis) was 64 µg/mL (≈ 87.2 µM) and the Range (Streptococcus agalactiae; n=20, r123) was 0.03-0.25. The MIC50 (Streptococcus agalactiae; n=20, r123, unit assumed) was 0.03 µg/mL (≈ 0.0409 µM), the Range (Streptococcus agalactiae; n=34, r124) was 0.015-0.06 and the MIC50 (Streptococcus agalactiae; n=34, r124, unit assumed) was 0.03 µg/mL (≈ 0.0409 µM). The MIC90 (Streptococcus agalactiae; n=34, r124, unit assumed) was 0.03 µg/mL (≈ 0.0409 µM), the Range (Streptococcus pneumoniae; n=26, r129) was 0.015-0.25 and the MIC90 (Streptococcus pneumoniae; n=26, r129) was 0.06 µg/mL (≈ 0.0818 µM). The Range (Streptococcus pneumoniae; n=50, r127) was 0.015-0.06, the MIC90 (Streptococcus pneumoniae; n=50, r127) was 0.03 µg/mL (≈ 0.0409 µM) and the MIC90 (Streptococcus pneumoniae; n=50, r130) was 0.06 µg/mL (≈ 0.0818 µM). The Range (Streptococcus pneumoniae; n=58, r125) was 0.03-0.25, the Range (Streptococcus spp.; n=22, r135) was 0.015-0.25 and the MIC50 (Streptococcus spp.; n=22, r135) was 0.03 µg/mL (≈ 0.0409 µM). The MIC90 (Streptococcus spp.; n=22, r135) was 0.06 µg/mL (≈ 0.0818 µM), the Range (Streptococcus spp.; n=107, r136) was 0.004-2 and the MIC50 (Streptococcus spp.; n=107, r136) was 0.03 µg/mL (≈ 0.0409 µM). The MIC90 (Streptococcus spp.; n=107, r136) was 1 µg/mL (≈ 1.36 µM), the MIC50 (Ureaplasma urealyticum; n=19, r138) was 16 µg/mL (≈ 21.8 µM) and the MIC90 (Ureaplasma urealyticum; n=19, r138) was 32 µg/mL (≈ 43.6 µM). For the same molecule, the MIC50 (Ureaplasma urealyticum; n=28, r137) was 2 µg/mL (≈ 2.73 µM).
